Patent US8575364B2, “Modulators of serotonin receptor” (Janssen Pharmaceutica NV, priority 2008, dated 2013)
Counter-ions that a name gives are not always drawn.

Legend:
r5-HT7 receptor = r5-HT7 receptor (Rattus norvegicus (Rat), UniProt P32305); assay: HitHunter cAMP assay, agonistic testing; format: cell-based; conditions: HEK-293 cells stably transfected with r5-HT7 receptor
Method: (§1) Receptor binding was performed using membrane fractions prepared from the HEK-293 cell line recombinantly expressing rat 5-HT7 receptors (NCBI accession NM_022938). Compound affinity for the rat 5-HT7 receptor subtype was evaluated by competitive radioligand binding assays using 5-carboxamido[^3H]tryptamine ([^3H]5-CT) (Amersham Biosciences, cat. 90000403) detection. HitHunter™ cAMP assays are in-vitro based competitive immunoassays. The assay was performed on the HEK-293 cell line stably transfected with r5-HT7 receptor. Cells were pre-incubated with test compounds for 10 minutes. For agonistic testing, the concentration of test compound that produced a half-maximal response is represented by the EC50 value. Compounds were assayed in their free form or as salts, as indicated in the Examples section above.

rat 5-HT7 receptors = rat 5-HT7 receptors (Rattus norvegicus (Rat), UniProt P32305); assay: r5-HT7 competitive radioligand binding assay ([3H]5-CT); conditions: membrane fractions of HEK-293 cells recombinantly expressing rat 5-HT7
Method: as §1, with “Compound” for “Receptor binding was performed using membrane fractions prepared from the HEK-293 cell line recombinantly expressing rat 5-HT7 receptors (NCBI accession NM_022938). Compound”, “The assay was performed on the HEK-293 cell line stably transfected with r5-HT7 receptor.” left out

r5-HT7 receptor, sequence (P32305 1-435): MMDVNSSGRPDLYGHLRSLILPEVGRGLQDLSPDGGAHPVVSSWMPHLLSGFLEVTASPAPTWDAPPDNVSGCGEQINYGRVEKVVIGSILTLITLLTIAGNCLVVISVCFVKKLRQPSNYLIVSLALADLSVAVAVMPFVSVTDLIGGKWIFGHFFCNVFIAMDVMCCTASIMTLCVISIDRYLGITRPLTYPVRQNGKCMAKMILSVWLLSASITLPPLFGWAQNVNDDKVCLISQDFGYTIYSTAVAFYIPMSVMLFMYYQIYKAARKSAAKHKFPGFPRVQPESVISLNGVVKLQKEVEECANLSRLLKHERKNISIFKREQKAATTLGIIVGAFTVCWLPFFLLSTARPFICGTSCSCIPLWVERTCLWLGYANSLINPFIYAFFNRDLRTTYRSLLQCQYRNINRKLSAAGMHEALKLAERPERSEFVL
rat 5-HT7 receptors, sequence (P32305 1-435): as above

Compound	EC50 (r5-HT7 receptor) [nM]	Ki (rat 5-HT7 receptors) [nM]
COc1ccc(-c2ccccc2C(F)(F)F)cc1OC1CNC1 [Example 1, 3-(4-Methoxy-2′-trifluoromethyl-biphenyl-3-yloxy)-azetidine]	200	3.79
COc1ccc(-c2cccc(C)c2C)cc1OC1CNC1 [Example 4, 3-(4-Methoxy-2′,3′-dimethyl-biphenyl-3-yloxy)-azetidine]	631	11
COc1ccc(-c2cccc(F)c2C)cc1OC1CNC1 [Example 5, 3-(3′-Fluoro-4-methoxy-2′-methyl-biphenyl-3-yloxy)-azetidine]	1580	19
COc1ccc(-c2ccccc2C)cc1OC1CNC1 [Example 8, 3-(4-Methoxy-2′-methyl-biphenyl-3-yloxy)-azetidine trifluoroacetate]	794	13.5
COc1ccc(-c2ccccc2Cl)cc1OC1CNC1 [Example 17, 3-(2′-Chloro-4-methoxy-biphenyl-3-yloxy)-azetidine]	794	4.42
Cc1cc(-c2ccc(Cl)cc2OC2CNC2)ccc1F [Example 41, 3-(4-Chloro-4′-fluoro-3′-methyl-biphenyl-2-yloxy)-azetidine]	–	470
Cc1ccc(-c2ccc(Cl)cc2OC2CNC2)cc1C [Example 42, 3-(4-Chloro-3′,4′-dimethyl-biphenyl-2-yloxy)-azetidine]	–	210

Next, values leading:

EC50 (r5-HT7 receptor) [nM]	Ki (rat 5-HT7 receptors) [nM]	Compound
–	180	Clc1ccc(-c2ccccc2C2CCNC2)cc1 (stereo not drawn) [Example 56, 3-(4′-Chloro-biphenyl-2-yl)-pyrrolidine]
–	1480	COc1ccc(-c2ccccc2)cc1OC1CCNCC1 [Example 68, 4-(4-Methoxy-biphenyl-3-yloxy)-piperidine]
–	59	COc1ccc(-c2ccccc2C(F)(F)F)cc1OC1CCNCC1 [Example 69, 4-(4-Methoxy-2′-trifluoromethyl-biphenyl-3-yloxy)-piperidine]
